Our source for the TGI and GI50 values is PubChem BioAssay (NCI).

Assay in all cases: NCI-60 cell line screen, 48 h
Experiment [1] relates to SNB-78 CNS.
The subject of experiment [2] is SK-MEL-2 melanoma.
For experiment [3], the system named is LXFL 529 NSCLC.
Experiment [4] deals with DMS 114 small cell lung.
Experiment [5] deals with IGROV1 ovarian.
The subject of experiment [6] is DMS 273 small cell lung.
Experiment [7] concerns HOP-18 NSCLC.
Experiment [8] relates to HT29 colon.
Experiment [9] concerns MALME-3M melanoma.
Experiment [10] concerns A549 NSCLC.
The subject of experiment [11] is M19-MEL melanoma.
In experiment [12] the test system is SN12C renal.
In experiment [13] the test system is CAKI-1 renal.
In experiment [14] the test system is U251 CNS.
The test system of experiment [15] is OVCAR-3 ovarian.
Experiment [16] relates to MDA-MB-435.
In experiment [17] the test system is BT-549 breast.

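48-hour exposure; five concentrations; linearly interpolated endpoints. GI50 marks 50% less growth. At the TGI there is no net growth.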 Bounds are passed on as bounds.

With `COc1ccc2c(c1)C=C(C(C)(C)C)NS2(=O)=O`, the TGI in [1], in experiment [2], in experiment [3], in [4], in [5] and in experiment [6] was greater than 100 µM each time. Also, the TGI in [7], in experiment [8], in experiment [9], in experiment [10], in [11] and in [12] was greater than 100 µM throughout. In addition, the TGI in [13], in [14] and in experiment [15] was greater than 100 µM in each case.

On to `CC(c1ccccc1)C(O)S(=O)(=O)O` (stereo not drawn), for which the TGI in [1], in experiment [2], in experiment [3], in experiment [4], in experiment [5] and in experiment [6] was greater than 100 µM throughout. In addition, the TGI in [7], in [8], in experiment [9], in experiment [10], in experiment [11] and in experiment [12] was greater than 100 µM each time. The TGI in [14] and in experiment [15] was greater than 100 µM each time.

As for `COc1ccc2c(c1)c(=O)c1c(NCCCN(C)C)ccc3ncn2c31`, the TGI in [1] was determined as 23.5 µM; in experiment [2] it was 22.1 µM; in experiment [3], 19.8 µM; in experiment [4] it was 22.6 µM; in experiment [5] it was 21.2 µM; in experiment [6] it was 15.5 µM. Further, the TGI came to 19.4 µM in [16]; 28.6 µM in experiment [7]; 8.21 µM in experiment [8]; 26 µM in experiment [9]; 14.5 µM in experiment [10]; 24.8 µM in experiment [11]. The TGI in experiment [17] is 32 µM; in [12], 18.9 µM; in [13], 22.6 µM; in experiment [14], 5.93 µM; in experiment [15] it was 26.7 µM.

As for `C[C@H]1[C@H](C)CC[C@]2(C(=O)OC3OC(CO)C(O)C(O)C3O)CC[C@]3(C)C(=CC[C@@H]4[C@@]5(C)C[C@@H](O)[C@@H]6OC(=O)c7cc(O)c(O)c(O)c7-c7c(cc(O)c(O)c7O)C(=O)OC[C@]6(CO)[C@@H]5CC[C@]43C)[C@H]12` (stereo partly drawn), the TGI was greater than 100 µM in [2]; greater than 100 µM in experiment [5]; 32.9 µM in experiment [16]; greater than 55.8 µM in experiment [8]; greater than 100 µM in experiment [9]; greater than 100 µM in experiment [10]. Moreover, the TGI in experiment [17] was greater than 100 µM; in experiment [12], greater than 100 µM; in experiment [13] it was greater than 53.3 µM; in experiment [14] it was 34.7 µM; in experiment [15], greater than 72.1 µM.

`CCOC(=O)/C=C(/C(=O)OCC)n1ccc(=O)n(CC(=O)OCC)c1=O`: the TGI came to 12.1 µM in [2]; 3.33 µM in [5]; 3.64 µM in experiment [16]; 3.24 µM in experiment [8]; 1.71 µM in experiment [9]; 16.8 µM in experiment [10]. Besides, the TGI stood at 4.61 µM in experiment [17]; 4.61 µM in experiment [12]; 0.32 µM in [13]; 8.03 µM in experiment [14]; 2.44 µM in [15]. The GI50 in experiment [12] was 2 µM.

Turning to `C[C@]12CC/C(=N\O)C=C1CC[C@@H]1[C@@H]2CC[C@]2(C)C(=N/O)/C(=C/c3ccncc3)C[C@@H]12`, the TGI in experiment [2] is 34.2 µM; in [5] it was greater than 100 µM; in experiment [16] it was 95.8 µM; in experiment [8] it was 42.1 µM; in experiment [9], greater than 100 µM; in experiment [10] it was greater than 100 µM. Further, the TGI was greater than 100 µM in experiment [17]; greater than 100 µM in experiment [12]; greater than 100 µM in [13]; greater than 100 µM in experiment [14]; 72.3 µM in [15].

In the case of `Nc1ncnc2c1cnn2COCC(O)CO` (stereo not drawn), the TGI in experiment [2], in [5], in [16], in experiment [8], in [9] and in experiment [10] was greater than 100 µM in each case. The TGI in [17], in [12], in experiment [13], in experiment [14] and in [15] was greater than 100 µM in each case.

Turning to `O=C(Nc1nccs1)NS(=O)(=O)n1cnc2ccccc21`, the TGI in experiment [2], in [5], in experiment [16], in experiment [8], in [9] and in [10] was greater than 100 µM each time. Further, the TGI in experiment [17], in [12], in experiment [13], in experiment [14] and in experiment [15] was greater than 100 µM throughout.

On to `Cn1c(O)c(C=Nc2ccc(Cl)cc2Cl)c(=O)n(C)c1=O`, for which the TGI in [2], in experiment [5], in experiment [16], in experiment [8], in experiment [9] and in experiment [10] was greater than 100 µM in each case. In addition, the TGI in experiment [17], in experiment [12], in experiment [13], in experiment [14] and in [15] was greater than 100 µM in each case.
